Legend:
[1] = xn = mol fraction of the nth substance listed; details: 101.3 kPa, Liquid, Vibrating tube method
[2] = relative permittivity at zero frequency (dimensionless); xn = mol fraction of the nth substance listed; details: 101.3 kPa, Liquid, AC Method
[3] = 101.33 kPa, Liquid, Vibrating tube method
[4] = relative permittivity at zero frequency (dimensionless); details: 101.33 kPa, Liquid, AC method

COCCOCCOC [2,5,8-trioxanonane] + CCCCCCC
Details | mass density [kg/m3] | relative permittivity at zero frequency
[1], 288.15 K, x2 = 0.0482 | 935.46 | –
[1], 288.15 K, x2 = 0.0986 | 921.11 | –
[1], 288.15 K, x2 = 0.1969 | 893.54 | –
[1], 288.15 K, x2 = 0.3042 | 864.14 | –
[1], 288.15 K, x2 = 0.4054 | 836.87 | –
[1], 288.15 K, x2 = 0.5047 | 810.62 | –
[1], 288.15 K, x2 = 0.6049 | 784.64 | –
[1], 288.15 K, x2 = 0.6982 | 760.9 | –
[1], 288.15 K, x2 = 0.788 | 738.48 | –
[1], 288.15 K, x2 = 0.8899 | 713.78 | –
[1], 288.15 K, x2 = 0.9452 | 700.73 | –
[1], 298.15 K, x2 = 0.0484 | 925.56 | –
[1], 298.15 K, x2 = 0.1001 | 910.8 | –
[1], 298.15 K, x2 = 0.1957 | 884.11 | –
[1], 298.15 K, x2 = 0.2887 | 858.66 | –
[1], 298.15 K, x2 = 0.4049 | 827.49 | –
[1], 298.15 K, x2 = 0.4975 | 803.13 | –
[1], 298.15 K, x2 = 0.5939 | 778.25 | –
[1], 298.15 K, x2 = 0.6925 | 753.3 | –
[1], 298.15 K, x2 = 0.7931 | 728.38 | –
[1], 298.15 K, x2 = 0.8988 | 703 | –
[1], 298.15 K, x2 = 0.9481 | 691.49 | –
[1], 308.15 K, x2 = 0.0482 | 915.56 | –
[1], 308.15 K, x2 = 0.098 | 901.53 | –
[1], 308.15 K, x2 = 0.1961 | 874.29 | –
[1], 308.15 K, x2 = 0.3036 | 845.06 | –
[1], 308.15 K, x2 = 0.3981 | 819.81 | –
[1], 308.15 K, x2 = 0.4994 | 793.28 | –
[1], 308.15 K, x2 = 0.599 | 767.73 | –
[1], 308.15 K, x2 = 0.6963 | 743.26 | –
[1], 308.15 K, x2 = 0.7844 | 721.56 | –
[1], 308.15 K, x2 = 0.8841 | 697.7 | –
[1], 308.15 K, x2 = 0.9372 | 685.34 | –
[1], 308.15 K, x2 = 0.9738 | 676.94 | –
[2], 288.15 K, x2 = 0.0492 | – | 7.25
[2], 288.15 K, x2 = 0.0982 | – | 6.84
[2], 288.15 K, x2 = 0.1991 | – | 6.04
[2], 288.15 K, x2 = 0.3006 | – | 5.3
[2], 288.15 K, x2 = 0.398 | – | 4.65
[2], 288.15 K, x2 = 0.4977 | – | 4.05
[2], 288.15 K, x2 = 0.5854 | – | 3.58
[2], 288.15 K, x2 = 0.7026 | – | 3.02
[2], 288.15 K, x2 = 0.801 | – | 2.61
[2], 288.15 K, x2 = 0.8927 | – | 2.28
[2], 288.15 K, x2 = 0.9408 | – | 2.12
[2], 298.15 K, x2 = 0.0494 | – | 6.98
[2], 298.15 K, x2 = 0.0988 | – | 6.59
[2], 298.15 K, x2 = 0.1956 | – | 5.85
[2], 298.15 K, x2 = 0.303 | – | 5.11
[2], 298.15 K, x2 = 0.3959 | – | 4.52
[2], 298.15 K, x2 = 0.4948 | – | 3.96
[2], 298.15 K, x2 = 0.6028 | – | 3.4
[2], 298.15 K, x2 = 0.7018 | – | 2.95
[2], 298.15 K, x2 = 0.7937 | – | 2.59
[2], 298.15 K, x2 = 0.891 | – | 2.25
[2], 298.15 K, x2 = 0.9419 | – | 2.09
[2], 308.15 K, x2 = 0.0494 | – | 6.73
[2], 308.15 K, x2 = 0.0981 | – | 6.35
[2], 308.15 K, x2 = 0.1993 | – | 5.62
[2], 308.15 K, x2 = 0.3025 | – | 4.94
[2], 308.15 K, x2 = 0.3951 | – | 4.39
[2], 308.15 K, x2 = 0.4936 | – | 3.86
[2], 308.15 K, x2 = 0.5951 | – | 3.36
[2], 308.15 K, x2 = 0.7021 | – | 2.89
[2], 308.15 K, x2 = 0.7993 | – | 2.53
[2], 308.15 K, x2 = 0.8953 | – | 2.21
[2], 308.15 K, x2 = 0.9472 | – | 2.06

CCCCCCC [heptane]
Details | mass density, 288.15 K [kg/m3] | mass density, 298.15 K [kg/m3] | mass density, 308.15 K [kg/m3] | relative permittivity at zero frequency, 288.15 K | relative permittivity at zero frequency, 298.15 K | relative permittivity at zero frequency, 308.15 K
[3] | 688.03 | 679.58 | 671.03 | – | – | –
[4] | – | – | – | 1.94 | 1.93 | 1.92
